Data from patent EP0400440B1, “Amino acid derivative anticonvulsant” (RESEARCH CORPORATION TECHNOLOGIES, INC., priority 1989, dated 1990).

Key:
[1] = Horizontal screen test (HS), neurological impairment; format: in vivo; settings: mouse, in vivo; mice; determined using the horizontal screen test (footnote xx); 95% confidence intervals in brackets; read-out: Tox TD50
Description: (§1) Pharmacology. The following compounds were'tested for anticonvulsant activity using male Carworth Farms #1 mice: • N-Acetyl-D,L-alanine-N'-benzylamide • N-Acetyl-D-alanine-N'-benzylamide • N-Acetyl-L-alanine-N'-benzylamide • N-Acetyl-D,L-phenylglycine-N'-methylamide • N-Acetylglycine-N-benzylamide • N-Acetyl-D,L-valine-N-benzylamide • N-Acetyl-D,L-phenylglycine-N-benzylamide • N-Acetyl-D-phenylglycine-N-benzylamide • N-Acetyl-L-phenylglycine-N-benzylamide • N-Acetyl-D,L-alanine-N-(3-methoxy)benzylamide • N-Trimethylacetyl-D,L-alanine-N-benzylamide • N-Acetyl-D,L-methionine-N-benzylamide • N-Acetyl-D,L-alanine-N'-(3-fluoro)benzylamide • D,L-α-Acetamido-N-benzyl-3-thiopheneacetamide • D,L-α-Acetamido-N-benzyl-2-thiopheneacetamide • D,L-α-Acetamido-N-benzyl-2-furanacetamide • D,L-α-Acetamido-N-benzyl-2-pyrroleacetamide • D,L-2-Acetamido-N-benzyl-2-ethoxyacetamide • D,L-α-Acetamido-N-benzyl-2-(5-methylfuran)acetamide • D,L-α-Acetamido-N-benzyl-2-benzofuranacetamide • D,L-α-Acetamido-N-benzyl-2-benzo[b]thiopheneacetamide • D,L-α-Acetamido-N-benzyl-2-(5-methylpyrrole)acetamide • D,L-α-Acetamido-N-(2-fluorobenzyl)-2-furanacetamide • D,L-α-Acetamido-N-(3-fluorobenzyl)-2-furanacetamide • D,L-α-Acetamido-N-(4-fluorobenzyl)-2-furanacetamide • D,L-α-Acetamido-N-(2,5-difluorobenzyl)-2-furanacetamide • D,L-α-Acetamido-N-(2,6-difluorobenzyl)-2-furanacetamide • D-(-)-α-Acetamido-N-benzyl-2-furanacetamide • L-(+)-α-Acetamido-N-benzyl-2-furanacetamide • D,L-2-Acetamido-4-pentenoic acid-N-benzylamide • D,L-2-Acetamido-N-benzyl-2-(1-morpholine)acetamide (reference compound) • D,L-2-Acetamido-N-benzyl-2-(N-anilino)acetamide • D,L-2-Acetamido-N-benzyl-2-(methylamino)acetamide • D,L-2-Acetamido-N-benzyl-2-(ethylamino)acetamide • D,L-2-Acetamido-N-benzyl-3-indoleacetamide (reference compound)
(§2) N-Acetyl-D,L-alanine-N'-benzylamide was tested at […] as well. […] Maximal electroshock seizures (MES) were elicited with a 60 cycle alternating current of 50 mA intensity (5-7 times that necessary to elicit minimal electroshock seizures) delivered for 0.2 sec via corneal electrodes. A drop of 0.9% saline was instilled in the eye prior to application of the electrodes so as to prevent the death of the animal. Protection in this test was defined as as the abolition of the hind limb tonic extension component of the seizure. The Subcutaneous Pentylenetetrazole (Metrazol^R) Seizure Threshold Test (sc Met) entailed the administration of 85 mg/kg of pentylenetetrazole as a 0.5% solution subcutaneously in the posterior midline. […] Protection was defined as a failure to observe even a threshold seizure (a single episode of clonic spasms of at least 5 sec duration). The effects of the compounds on forced and spontaneous motor activity were evaluated in mice using the Rotorod Test (Tox) or, in some cases, as indicated herein, a horizontal screen assay (HS). The procedure for the rotorod test is described in J. Am. Pharm. Assoc., 46, 208-209 (1957). In the rotorod test, the animal was placed on a one-inch diameter knurled plastic rod rotating at 6 rpm after the administration of the drug. Normal mice can remain on a rod rotating at this speed indefinitely. Neurologic toxicity was defined as the failure of the animal to remain on the rod for one minute. In the horizontal screen test, previously trained mice were dosed with the compound and placed individually on top of a square (13 cm X 13 cm) wire screen (no. 4 mesh) which was mounted on a metal rod. The rod was rotated 180°, and the number of mice that returned to the top of the screen was determined. Inability to climb to the top within one minute was defined as "neurological impairment". This procedure is described in Pharmacol. Biochem. Behav. 6, 351-353 (1977).
(§3) The dose effect behavior of the compounds was evaluated using the above-described procedures by the administration of varying dose levels, treating normally eight mice at each dose. […]

[2] = system: male Carworth Farms #1 mice; test: Maximal electroshock seizure test (MES); format: in vivo; settings: Mus musculus, maximal electroshock seizures
Description: as §1, §2, §3

[3] = system: male Carworth Farms #1 mice; test: Horizontal screen test (HS), neurological impairment; format: in vivo; settings: determined using the horizontal screen test (footnote xx), 95% confidence intervals in brackets
Description: as §1, §2, §3

[4] = system: male Carworth Farms #1 mice; test: Subcutaneous Pentylenetetrazole (Metrazol) Seizure Threshold Test (sc Met); format: in vivo; settings: 85 mg/kg pentylenetetrazole subcutaneously, 95% confidence intervals in brackets
Description: Pharmacology. […]
N-Acetyl-D,L-alanine-N'-benzylamide was tested at 600 mg/mL as well. […] The effects of the compounds on forced and spontaneous motor activity were evaluated in mice using the Rotorod Test (Tox) or, in some cases, as indicated herein, a horizontal screen assay (HS). […] The rod was rotated 180°, and the number of mice that returned to the top of the screen was determined. […]
as §3

[5] = Rotorod Test (Tox), neurologic toxicity; settings: mouse, in vivo, mice, median toxic dose, 95% confidence intervals in brackets
Description: The effects of the compounds on forced and spontaneous motor activity were evaluated in mice using the Rotorod Test (Tox) or, in some cases, as indicated herein, a horizontal screen assay (HS). […] In the rotorod test, the animal was placed on a one-inch diameter knurled plastic rod rotating at 6 rpm after the administration of the drug. Normal mice can remain on a rod rotating at this speed indefinitely. Neurologic toxicity was defined as the failure of the animal to remain on the rod for one minute. In the horizontal screen test, previously trained mice were dosed with the compound and placed individually on top of a square (13 cm X 13 cm) wire screen (no. 4 mesh) which was mounted on a metal rod. The rod was rotated 180°, and the number of mice that returned to the top of the screen was determined. Inability to climb to the top within one minute was defined as "neurological impairment".

[6] = 50 mA, 0.2 sec, corneal electrodes, 95% confidence intervals in brackets

Row | SMILES | TD50 [1] [mg/kg] | ED50 [2, 6] [mg/kg] | also measured
1 | CC(=O)NC(C(=O)NCc1cccc(F)c1)c1ccco1 (racemic) [(D,L)-α-Acetamido-N-(3-fluorobenzyl)-2-furanacetamide] | 136 | 13.3 | –
2 | CCNC(NC(C)=O)C(=O)NCc1ccccc1 (racemic) [(D,L)-2-Acetamido-N-benzyl-2-(ethylamino)acetamide] | – | 42.4 | –
3 | CC(=O)NC(C(=O)NCc1ccccc1)c1ccc(C)o1 (racemic) [(D,L)-α-Acetamido-N-benzyl-2-(5-methylfuran)acetamide] | – | 19.2 | Tox TD50 [3]: 75.4^xx mg/kg
4 | C=CCC(NC(C)=O)C(=O)NCc1ccccc1 (racemic) [(D,L)-2-Acetamido-4-pentenoic Acid-N-benzylamide] | – | 33.6 | –
5 | CC(=O)NC(C(=O)NCc1ccccc1)N1CCOCC1 (racemic) [(D,L)-2-Acetamido-N-benzyl-2-(1-morpholine)acetamide, reference compound] | – | 30 to 100 | –
6 | CC(=O)NC(C(=O)NCc1ccccc1F)c1ccco1 (racemic) [(D,L)-α-Acetamido-N-(2-fluorobenzyl)-2-furanacetamide] | – | 40 | –
7 | CC(=O)NC(C(=O)NCc1ccccc1)c1cc2ccccc2o1 (racemic) [(D,L)-α-Acetamido-N-benzyl-2-benzofuranacetamide] | 100 to 300 | 100 to 300 | –
8 | CC(=O)NC(C(=O)NCc1ccc(F)cc1)c1ccco1 (racemic) [(D,L)-α-Acetamido-N-(4-fluorobenzyl)-2-furanacetamide] | 144 | 12.7 | –
9 | O=C1NC(=O)C(c2ccccc2)(c2ccccc2)N1 [phenytoin] | – | – | sc Met ED50 [4]: not effective
10 | CC(=O)NC(C(=O)NCc1ccccc1)c1ccco1 (racemic) [D,L-α-Acetamido-N-benzyl-2-furanacetamide] | 23.8 | – | TD50 [5]: > 300 mg/kg
11 | CC(=O)NC(Nc1ccccc1)C(=O)NCc1ccccc1 (racemic) [(D,L)-2-Acetamido-N-benzyl-2-(N-anilino)acetamide] | – | – | ED50 ([2]; result given as footnote symbol): ≥ 300 mg/kg
12 | CC(=O)NC(C(=O)NCc1ccccc1)c1cc2ccccc2s1 (racemic) [(D,L)-α-Acetamido-N-benzyl-2-benzo[b]thiopheneacetamide] | 100 to 300 | 100 to 300 | –
13 | CC(=O)NC(C(=O)NCc1ccccc1)c1ccc(C)[nH]1 (racemic) [(D,L)-α-Acetamido-N-benzyl-2-(5-methylpyrrole)acetamide] | – | 36.5 | –
14 | CC(=O)NC(C(=O)NCc1cc(F)ccc1F)c1ccco1 (racemic) [(D,L)-α-Acetamido-N-(2,5-fluorobenzyl)-2-furanacetamide] | – | 23.8 | –
15 | CNC(NC(C)=O)C(=O)NCc1ccccc1 (racemic) [(D,L)-2-Acetamido-N-benzyl-2-(methylamino)acetamide] | – | 44.5 | TD50 [5]: 95 mg/kg
16 | CC(=O)NC(C(=O)NCc1c(F)cccc1F)c1ccco1 (racemic) [(D,L)-α-Acetamido-N-(2,6-difluorobenzyl)-2-furanacetamide] | – | 25 to 100 | –
